# Test results: PubChem BioAssay AID248 (DTP/NCI, 2004)
# Several values for one entry are separate records, joined by “and”; a condition that tells them apart may be missing. Equal entries are not always repeated. Toxic doses and inconclusive results are not listed.
# Tested on: L1210 leukemia ip in BDF1 mice, survival T/C
# Assay: NCI In Vivo Anticancer Drug Screen. Data for tumor model L1210 Leukemia (intraperitoneal) in B6D2F1 (BDF1) mice
# Conditions: endpoint: mean survival time, higher = longer survival
# Summary of the method: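 Ratio derived from survival: compound-dosed mice over vehicle-dosed mice, all bearing a transplantable tumor.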
# [1] = dose: 100.0 mg/kg/injection, schedule: Q01DX009 (ip), vehicle: Klucel (hydroxypropylcellulose) (HPC)
smiles,measurement,setting,value
Cc1cc(C(=O)O)c(CO)c(=O)n1C,T/C,"dose: 100.0 mg/kg/injection, schedule: Q04DX003 (ip), vehicle: water",104 % of control
same,T/C,"dose: 200.0 mg/kg/injection, schedule: Q04DX003 (ip), vehicle: water",104 % of control
same,T/C,"dose: 400.0 mg/kg/injection, schedule: Q04DX003 (ip), vehicle: water",94 % of control
Nc1c(Cl)c(Cl)c(Cl)c(Cl)c1C(=O)O,T/C,"dose: 40.0 mg/kg/injection, schedule: Q01DX009 (ip), vehicle: Klucel (hydroxypropylcellulose) (HPC)",105 % of control
same,T/C,"dose: 75.0 mg/kg/injection, schedule: Q01DX009 (ip), vehicle: Klucel (hydroxypropylcellulose) (HPC)",103 % of control
same,T/C,"dose: 75.0 mg/kg/injection, schedule: Q04DX003 (ip), vehicle: saline",104 % of control
same,T/C,[1],93 % of control
same,T/C,"dose: 150.0 mg/kg/injection, schedule: Q01DX009 (ip), vehicle: Klucel (hydroxypropylcellulose) (HPC)",97 % of control and 122 % of control
same,T/C,"dose: 150.0 mg/kg/injection, schedule: Q04DX003 (ip), vehicle: saline",98 % of control
same,T/C,"dose: 200.0 mg/kg/injection, schedule: Q01DX009 (ip), vehicle: Klucel (hydroxypropylcellulose) (HPC)",93 % of control
NNC(=O)c1ccccc1[N+](=O)[O-],T/C,"dose: 25.0 mg/kg/injection, schedule: Q01DX009 (ip), vehicle: Klucel (hydroxypropylcellulose) (HPC)",95 % of control
same,T/C,"dose: 50.0 mg/kg/injection, schedule: Q01DX009 (ip), vehicle: Klucel (hydroxypropylcellulose) (HPC)",94 % of control
same,T/C,"dose: 50.0 mg/kg/injection, schedule: Q04DX003 (ip), vehicle: Klucel (hydroxypropylcellulose) (HPC)",100 % of control
same,T/C,[1],101 % of control
same,T/C,"dose: 100.0 mg/kg/injection, schedule: Q04DX003 (ip), vehicle: Klucel (hydroxypropylcellulose) (HPC)",100 % of control
O=C(Nc1ccc(Cl)c(Cl)c1)Nc1ccc(Cl)cc1O,T/C,"dose: 100.0 mg/kg/injection, schedule: Q01DX001 (ip), vehicle: carboxymethylcellulose (CMC)",100 % of control
same,T/C,"dose: 200.0 mg/kg/injection, schedule: Q01DX001 (ip), vehicle: carboxymethylcellulose (CMC)",96 % of control
same,T/C,"dose: 400.0 mg/kg/injection, schedule: Q01DX001 (ip), vehicle: carboxymethylcellulose (CMC)",96 % of control
COc1ccc(Cl)cc1NS(=O)(=O)c1c(C)cc(C)cc1C,T/C,"dose: 100.0 mg/kg/injection, schedule: Q01DX009 (ip), vehicle: saline",104 % of control
same,T/C,"dose: 200.0 mg/kg/injection, schedule: Q01DX009 (ip), vehicle: saline",96 % of control
same,T/C,"dose: 400.0 mg/kg/injection, schedule: Q01DX009 (ip), vehicle: saline",111 % of control
NNC(=O)c1ccc(S(N)(=O)=O)cc1,T/C,"dose: 12.5 mg/kg/injection, schedule: Q01DX009 (ip), vehicle: water",93 % of control
same,T/C,"dose: 25.0 mg/kg/injection, schedule: Q01DX009 (ip), vehicle: water",96 % of control
same,T/C,"dose: 50.0 mg/kg/injection, schedule: Q01DX009 (ip), vehicle: water",343 % of control
same,T/C,"dose: 59.0 mg/kg/injection, schedule: Q01DX009 (ip), vehicle: other",93 % of control and 103 % of control
same,T/C,"dose: 89.0 mg/kg/injection, schedule: Q01DX009 (ip), vehicle: other",97 % of control and 92 % of control
same,T/C,"dose: 100.0 mg/kg/injection, schedule: Q01DX009 (ip), vehicle: water",403 % of control
same,T/C,"dose: 133.0 mg/kg/injection, schedule: Q01DX009 (ip), vehicle: other",101 % of control and 87 % of control
same,T/C,"dose: 200.0 mg/kg/injection, schedule: Q01DX009 (ip), vehicle: other",99 % of control and 90 % of control
same,T/C,"dose: 200.0 mg/kg/injection, schedule: Q01DX009 (ip), vehicle: water",459 % of control
same,T/C,"dose: 300.0 mg/kg/injection, schedule: Q01DX009 (ip), vehicle: other",94 % of control and 99 % of control
N=C(N)N=Nc1ccc(NN=C(N)N)c2ccccc12,T/C,"dose: 15.0 mg/kg/injection, schedule: Q01DX Z (ip), vehicle: saline",94 % of control
same,T/C,"dose: 15.0 mg/kg/injection, schedule: Q01DX Z (oral), vehicle: other",103 % of control
same,T/C,"dose: 30.0 mg/kg/injection, schedule: Q01DX Z (ip), vehicle: saline",102 % of control
same,T/C,"dose: 30.0 mg/kg/injection, schedule: Q01DX Z (oral), vehicle: other",98 % of control
same,T/C,"dose: 60.0 mg/kg/injection, schedule: Q01DX Z (oral), vehicle: other",98 % of control
same,T/C,"dose: 120.0 mg/kg/injection, schedule: Q01DX Z (oral), vehicle: other",95 % of control
CCOc1ccc(-n2c(O)c(N=Nc3ccccc3C)c(=O)n(-c3ccc(OC)cc3)c2=S)cc1,T/C,"dose: 100.0 mg/kg/injection, schedule: Q01DX001 (ip), vehicle: Klucel (hydroxypropylcellulose) (HPC)",94 % of control
same,T/C,"dose: 200.0 mg/kg/injection, schedule: Q01DX001 (ip), vehicle: Klucel (hydroxypropylcellulose) (HPC)",95 % of control
same,T/C,"dose: 400.0 mg/kg/injection, schedule: Q01DX001 (ip), vehicle: Klucel (hydroxypropylcellulose) (HPC)",89 % of control
